In US6914045B2, “Glycopeptide antibiotics” (Wyeth Holdings Corporation, priority 2001, dated 2005):
Converted amounts (≈) assume the structure as drawn.

Tests used:
Assay in all cases: in vitro antibacterial evaluation, MIC by broth dilution
Assay type in all cases: cell-based
[1] = system: Streptococcus sp.; conditions: broth dilution, 18 hours at 35° C.
In short: (§1)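 MIC, the lowest antibiotic concentration preventing growth, was read across 64-0.06 μg/mL with 5×10^5 CFU/mL inoculum. Method followed NCCLS M7-A2 broth dilution using Mueller-Hinton II; Gram-positive strains covered recent methicillin-, penicillin- and/or vancomycin-resistant clinical isolates.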

[2] = system: Enterococcus sp.; conditions: broth dilution, 18 hours at 35° C.
In short: as §1

[3] = system: Staphylococcus sp.; conditions: broth dilution, 18 hours at 35° C.
In short: as §1

[4] = system: Escherichia coli; conditions: 18 hours at 35° C.
In short: as §1

- MIC Streptococcus agalactiae (GC 4564) ([1]; Streptococcus agalactiae (GC 4564)): 0.5 µg/mL (≈ 0.361 µM)
- MIC Streptococcus pneumoniae (ATCC 6301) ([1]; Streptococcus pneumoniae (ATCC 6301)): 0.12 µg/mL (≈ 0.0867 µM)
- MIC Streptococcus pneumoniae (GC 1894) ([1]; Streptococcus pneumoniae (GC 1894)): 0.12 µg/mL (≈ 0.0867 µM)
- MIC Streptococcus pneumoniae (GC 4565) ([1]; Streptococcus pneumoniae (GC 4565)): 0.12 µg/mL (≈ 0.0867 µM)
- MIC Streptococcus pyogenes (GC 4563) ([1]; Streptococcus pyogenes (GC 4563)): 0.12 µg/mL (≈ 0.0867 µM)
- MIC Streptococcus pneumoniae (ATCC 6301) ([1]; strain ATCC 6301): 0.12 µg/mL (≈ 0.0867 µM)
- MIC Streptococcus pneumoniae (GC 1894) ([1]; strain GC 1894): 0.12 µg/mL (≈ 0.0867 µM)
- MIC Streptococcus pyogenes (GC 4563) ([1]; strain GC 4563): 0.12 µg/mL (≈ 0.0867 µM)
- MIC Streptococcus agalactiae (GC 4564) ([1]; strain GC 4564): 0.5 µg/mL (≈ 0.361 µM)
- MIC Streptococcus pneumoniae (GC 4565) ([1]; strain GC 4565): 0.12 µg/mL (≈ 0.0867 µM)
- MIC Enterococcus avium (GC 4558) ([2]; Enterococcus avium (GC 4558)): 0.5 µg/mL (≈ 0.361 µM)
- MIC Enterococcus faecalis (ATCC 29212) ([2]; Enterococcus faecalis (ATCC 29212)): 0.5 µg/mL (≈ 0.361 µM)
- MIC Enterococcus faecalis (GC 2242) ([2]; Enterococcus faecalis (GC 2242)): 0.5 µg/mL (≈ 0.361 µM)
- MIC Enterococcus faecalis (GC 2691) ([2]; Enterococcus faecalis (GC 2691)): 0.5 µg/mL (≈ 0.361 µM)
- MIC Enterococcus faecalis (GC 3059) ([2]; Enterococcus faecalis (GC 3059)): 0.5 µg/mL (≈ 0.361 µM)
- MIC Enterococcus faecalis (GC 4552) ([2]; Enterococcus faecalis (GC 4552)): 0.5 µg/mL (≈ 0.361 µM)
- MIC Enterococcus faecalis (GC 4553) ([2]; Enterococcus faecalis (GC 4553)): 0.5 µg/mL (≈ 0.361 µM)
- MIC Enterococcus faecalis (GC 4554) ([2]; Enterococcus faecalis (GC 4554)): 0.5 µg/mL (≈ 0.361 µM)
- MIC Enterococcus faecalis (GC 6189) ([2]; Enterococcus faecalis (GC 6189)): 0.5 µg/mL (≈ 0.361 µM)
- MIC Enterococcus faecium (GC 2243) ([2]; Enterococcus faecium (GC 2243)): 0.5 µg/mL (≈ 0.361 µM)
- MIC Enterococcus faecium (GC 4556) ([2]; Enterococcus faecium (GC 4556)): 0.5 µg/mL (≈ 0.361 µM)
- MIC Enterococcus faecium (GC 4557) ([2]; Enterococcus faecium (GC 4557)): 0.5 µg/mL (≈ 0.361 µM)
- MIC Enterococcus faecalis (ATCC 29212) ([2]; strain ATCC 29212): 0.5 µg/mL (≈ 0.361 µM)
- MIC Enterococcus faecalis (GC 2242) ([2]; strain GC 2242): 0.5 µg/mL (≈ 0.361 µM)
- MIC Enterococcus faecium (GC 2243) ([2]; strain GC 2243): 0.5 µg/mL (≈ 0.361 µM)
- MIC Enterococcus faecalis (GC 2691) ([2]; strain GC 2691): 0.5 µg/mL (≈ 0.361 µM)
- MIC Enterococcus faecalis (GC 3059) ([2]; strain GC 3059): 0.5 µg/mL (≈ 0.361 µM)
- MIC Enterococcus faecalis (GC 4552) ([2]; strain GC 4552): 0.5 µg/mL (≈ 0.361 µM)
- MIC Enterococcus faecalis (GC 4553) ([2]; strain GC 4553): 0.5 µg/mL (≈ 0.361 µM)
- MIC Enterococcus faecalis (GC 4554) ([2]; strain GC 4554): 0.5 µg/mL (≈ 0.361 µM)
- MIC Enterococcus faecium (GC 4556) ([2]; strain GC 4556): 0.5 µg/mL (≈ 0.361 µM)
- MIC Enterococcus faecium (GC 4557) ([2]; strain GC 4557): 0.5 µg/mL (≈ 0.361 µM)
- MIC Enterococcus avium (GC 4558) ([2]; strain GC 4558): 0.5 µg/mL (≈ 0.361 µM)
- MIC Enterococcus faecalis (GC 6189) ([2]; strain GC 6189): 0.5 µg/mL (≈ 0.361 µM)
- MIC Coagulase Negative Staphylococcus (GC 4547) [3]: 4 µg/mL (≈ 2.89 µM)
- MIC Coagulase Negative Staphylococcus (GC 4548) [3]: 4 µg/mL (≈ 2.89 µM)
- MIC Coagulase Negative Staphylococcus (GC 4549) [3]: 4 µg/mL (≈ 2.89 µM)
- MIC Coagulase Negative Staphylococcus (GC 4551) [3]: 8 µg/mL (≈ 5.78 µM)
- MIC Coagulase Negative Staphylococcus (GC 6257) [3]: 2 µg/mL (≈ 1.45 µM)
- MIC Staphylococcus aureus (ATCC 29213) [3]: 0.5 µg/mL (≈ 0.361 µM)
- MIC Staphylococcus aureus (GC 1131) [3]: 0.5 µg/mL (≈ 0.361 µM)
- MIC Staphylococcus aureus (GC 3051) [3]: 0.5 µg/mL (≈ 0.361 µM)
- MIC Staphylococcus aureus (GC 3053) [3]: 0.5 µg/mL (≈ 0.361 µM)
- MIC Staphylococcus aureus (GC 4541) [3]: 0.5 µg/mL (≈ 0.361 µM)
- MIC Staphylococcus aureus (GC 4542) [3]: 0.5 µg/mL (≈ 0.361 µM)
- MIC Staphylococcus aureus (GC 4544) [3]: 0.5 µg/mL (≈ 0.361 µM)
- MIC Staphylococcus aureus (GC 4545) [3]: 0.5 µg/mL (≈ 0.361 µM)
- MIC Staphylococcus aureus-SMITH (GC 4543) [3]: 0.5 µg/mL (≈ 0.361 µM)
- MIC Coagulase Negative Staphylococcus (GC 4547) ([3]; strain GC 4547): 4 µg/mL (≈ 2.89 µM)
- MIC Coagulase Negative Staphylococcus (GC 4548) ([3]; strain GC 4548): 4 µg/mL (≈ 2.89 µM)
- MIC Coagulase Negative Staphylococcus (GC 4549) ([3]; strain GC 4549): 4 µg/mL (≈ 2.89 µM)
- MIC Coagulase Negative Staphylococcus (GC 4551) ([3]; strain GC 4551): 8 µg/mL (≈ 5.78 µM)
- MIC Coagulase Negative Staphylococcus (GC 6257) ([3]; strain GC 6257): 2 µg/mL (≈ 1.45 µM)
- MIC Staphylococcus aureus-SMITH (GC 4543) ([3]; strain SMITH GC 4543): 0.5 µg/mL (≈ 0.361 µM)
- MIC Staphylococcus aureus (ATCC 29213) ([3]; strain ATCC 29213): 0.5 µg/mL (≈ 0.361 µM)
- MIC Staphylococcus aureus (GC 1131) ([3]; strain GC 1131): 0.5 µg/mL (≈ 0.361 µM)
- MIC Staphylococcus aureus (GC 3051) ([3]; strain GC 3051): 0.5 µg/mL (≈ 0.361 µM)
- MIC Staphylococcus aureus (GC 3053) ([3]; strain GC 3053): 0.5 µg/mL (≈ 0.361 µM)
- MIC Staphylococcus aureus (GC 4541) ([3]; strain GC 4541): 0.5 µg/mL (≈ 0.361 µM)
- MIC Staphylococcus aureus (GC 4542) ([3]; strain GC 4542): 0.5 µg/mL (≈ 0.361 µM)
- MIC Staphylococcus aureus (GC 4544) ([3]; strain GC 4544): 0.5 µg/mL (≈ 0.361 µM)
- MIC Staphylococcus aureus (GC 4545) ([3]; strain GC 4545): 0.5 µg/mL (≈ 0.361 µM)
- MIC Escherichia coli (ATCC 25922) ([4]; strain ATCC 25922): >0.5 µg/mL
- MIC Escherichia coli (GC 4559) ([4]; strain GC 4559): >0.5 µg/mL
- MIC Escherichia coli (GC 4560) ([4]; strain GC 4560): 0.5 µg/mL (≈ 0.361 µM)
SMILES: CC(c1ccccc1)C1NC(=O)CNC(=O)C(CO)NC(=O)C(C(O)C2CNC(=N)N2C2OC(CO)C(O)C(O)C2O)NC(=O)C(C(O)C2CNC(=N)N2)NC(=O)C(Cc2ccc(OC3OC(CO)C(OC4OC(CO)C(O)C5OC(c6ccccc6)OC45)C(O)C3O)cc2)NC1=O (single isomer, unassigned) [Example 104b, Cyclo[glycyl-β-methylphenylalanyl-O-[4-O-(2,3-O-benzylidenehexopyranosyl)hexopyranosyl]-tyrosyl-3-(2-iminoimidazolidin-4-yl)seryl-3-(3-hexopyranosyl-2-iminoimidazolidin-4-yl)-serylseryl]]
- MIC Staphylococcus haemolyticus (GC 4546) [3]: 0.5 µg/mL (≈ 0.361 µM)
- MIC Staphylococcus haemolyticus (GC 4546) ([3]; strain GC 4546): 0.5 µg/mL (≈ 0.361 µM)
